# Data as given in PMC5515971, “Utility of spherical human liver microtissues for prediction of clinical drug-induced liver injury” (Archives of Toxicology, 2017).
# Read-outs that look alike come from different tables or passages of the source.
# Columns and labels:
# [1] = cited from earlier work; for DILI category: clinical, from literature and product labels
# [2] = system: primary human hepatocytes (PHH); test: Cytotoxicity (cellular ATP, CellTiter-Glo) in 2D plated primary human hepatocytes, 48 h treatment; assay type: cell-based; details: for IC50: read-out: Geomean IC50;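 for all read-outs here: 384-well plates, luminescence read-out, normalized to vehicle wells with 1% DMSO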
# Protocol: Cryopreserved PHH (lot IZT) were thawed in InVitroGro HT™ thawing media at 37 °C, pelleted, and resuspended. Viable hepatocytes were counted by Trypan blue exclusion and plated in black-walled, BioCoat™ collagen 384-well plates at 13,000 cells/well in InVitroGro CP™ plating media supplemented with 1% Torpedo™ Antibiotic Mix and 5% fetal bovine serum and incubated overnight for 18 h. Cells were then treated with compounds for 48 h diluted in InVitroGro HI™ incubation media containing 1% Torpedo Antibiotic Mix, 10% fetal bovine serum, and 1% DMSO. […] Luminescence was determined on an EnVision™ Muliplate Reader (PerkinElmer, Waltham, MA, USA), and data were normalized to vehicle (1% DMSO) control wells.
# [3] = cited from earlier work
# [4] = system: 3D human liver microtissues (hLiMT); test: Cytotoxicity (cellular ATP, CellTiter-Glo 2.0) in 3D human liver microtissues, 14 day repeat-dose treatment
# [5] = ref Chen et al 2016 / Chen et al 2011; cited from earlier work
# [6] = system: 3D human liver microtissues (hLiMT); test: Cytotoxicity (cellular ATP) in 3D human liver microtissues, 5-6 days treatment; assay type: cell-based; details: read-out: IC50 SHORT;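 note: Hanging-drop spheroids, seven-point dilution series, re-dosed on day 3, CellTiter-Glo 2.0 luminescence, normalized to 0.5 or 1% DMSO vehicle controls on the same plate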
# [7] = Table 1, ref Garside et al. (2014)
# [8] = clinical DILI severity category, 1-5
# [9] = Hepatocyte, 2D primary human hepatocytes (lot IZT), 48 h treatment, total cellular ATP content
# [10] = human Cmax total, used for IC50/Cmax
# [11] = human total plasma Cmax, ref literature values
# [12] = Homo sapiens, Hepatocyte, 336 h, read-out: Geomean IC50 [µM]
# [13] = Homo sapiens, hLiMT, 5/6 days, ATP content
# [14] = Homo sapiens, 336 h, read-out: IC50 LONG
# [15] = 2D primary human hepatocytes (lot IZT), 48 h treatment, total cellular ATP content
# [16] = read-out: Geomean IC50, decrease in total cellular ATP content, hLiMT treated for 14 days, hepatocyte lot IZT (except Dexamethasone) co-cultured with NPCs, n=1 or geometric mean
Structure (SMILES),"DILI severity category [1, 7]","DILI severity category [1, 8]",DILI category ([1]; ref Garside et al. 2014),"IC50 [2, 9] [µM]","Cmax [3, 10] [µM]","Cmax [3, 11] [µM]","IC50 [4, 12] [µM]",FDA DILI Classification DILI severity score [5],LTKB DILI classification [5],"IC50 [6, 13] [µM]",further results
CS(=O)(=O)CCNCc1ccc(-c2ccc3ncnc(Nc4ccc(OCc5cccc(F)c5)c(Cl)c4)c3c2)o1 [Lapatinib],1: Severe clinical DILI (N = 23),1. Severe Clinical DILI,1. Severe Clinical DILI,33.3,19,19,~27.3,8,most DILI concern,,
CCC(C)n1ncn(-c2ccc(N3CCN(c4ccc(OCC5COC(Cn6cncn6)(c6ccc(Cl)cc6Cl)O5)cc4)CC3)cc2)c1=O (stereo not drawn) [Itraconazole],2: High clinical DILI concern (N = 23),2. High Clinical DILI Concern,2. High Clinical DILI Concern,> 25,2.8,2.83,1.6,8,most DILI concern,,
CCc1oc2ccccc2c1C(=O)c1cc(Br)c(O)c(Br)c1 [Benzbromarone],1: Severe clinical DILI (N = 23),1. Severe Clinical DILI,1. Severe Clinical DILI,171,23.6,23.6,11.8,8,most DILI concern,,
CCN(CC)CCCC(C)Nc1c2ccc(Cl)cc2nc2ccc(OC)cc12 (stereo not drawn) [Quinacrine],,,,7.3,,258,> 2,,,3.7,"IC50 [4, 14]: 2 µM"
CCN(CC)CCNC(=O)c1c(C)[nH]c(/C=C2\C(=O)Nc3ccc(F)cc32)c1C [Sunitinib],1: Severe clinical DILI (N = 23),1. Severe Clinical DILI,1. Severe Clinical DILI,13.3,,70.8,~2,8,most DILI concern,,
NC(=O)N1c2ccccc2C=Cc2ccccc21 [Carbamazepine],2: High clinical DILI concern (N = 23),2. High Clinical DILI Concern,2. High Clinical DILI Concern,> 500,50.8,50.8,267,7,most DILI concern,,
CN(C)CCC=C1c2ccccc2CCc2ccccc21 [Amitriptyline],3: Low clinical DILI concern (N = 23),3. Low Clinical DILI Concern,3. Low Clinical DILI Concern,41.8,0.721,0.72,18.8,5,less DILI concern,,
Cn1cnc([N+](=O)[O-])c1Sc1ncnc2nc[nH]c12 [Azathioprine],2: High clinical DILI concern (N = 23),2. High Clinical DILI Concern,2. High Clinical DILI Concern,> 100,7.2,7.21,22.2,5,most DILI concern,,
CC(C)c1c(C(=O)Nc2ccccc2)c(-c2ccccc2)c(-c2ccc(F)cc2)n1CC[C@@H](O)C[C@@H](O)CC(=O)O [Atorvastatin],,,,,,,6,,,70.7,
CC(C(=O)O)c1ccc2oc(-c3ccc(Cl)cc3)nc2c1 (stereo not drawn) [Benoxaprofen],1: Severe clinical DILI (N = 23),1. Severe Clinical DILI,1. Severe Clinical DILI,> 100,149,149,> 100,8,most DILI concern,,
CCOC(=O)CN[C@@H](C(=O)N1CC[C@H]1C(=O)NCc1ccc(/C(N)=N\O)cc1)C1CCCCC1 [Ximelagatran],,,,> 200,0.45,0.45,~151,,,200,"IC50 ([4]; Homo sapiens, 336 h, read-out: IC50 (ATP-assay)): 121 µM; IC50 [4, 14]: 151 µM"
Cc1cnc(NC(=O)C2=C(O)c3ccccc3S(=O)(=O)N2C)s1 [Meloxicam],,,,> 100,5.21,5.21,> 100,,,100,
COc1ccc2c(c1)c(CC(=O)O)c(C)n2C(=O)c1ccc(Cl)cc1 [Indomethacin],,,,> 100,8.4,8.38,> 100,,,100,
CC(c1cc2ccccc2s1)N(O)C(N)=O (stereo not drawn) [Zileuton],2: High clinical DILI concern (N = 23),2. High Clinical DILI Concern,2. High Clinical DILI Concern,> 100,13.1,13.1,> 100,5,most DILI concern,,
Cc1cc2c(cc1CC(=O)c1sccc1S(=O)(=O)Nc1onc(C)c1Cl)OCO2 [Sitax(s)entan],1: Severe clinical DILI (N = 23),1. Severe Clinical DILI,1. Severe Clinical DILI,,28.6,28.6,,8,most DILI concern,,"IC50 [2, 15]: > 500 µM; cytotoxicity IC50 detected ([2]; PHH 48 h, in words): no IC50 values were detected; IC50 [4, 16]: 249 µM"
CC(=O)Oc1ccccc1C(=O)O [Acetylsalicylic acid],3: Low clinical DILI concern (N = 23),3. Low Clinical DILI Concern,3. Low Clinical DILI Concern,> 1000,1110,1110,> 1000,5,,,
Cn1c(=O)c2[nH]cnc2n(C)c1=O [Theophylline],,,,,,,> 100,,,,"IC50 ([2]; Homo sapiens, Hepatocyte, 48 h): > 100 µM; Cmax ([3]; human, in vivo): 83.8 µM; IC50 ([6]; Homo sapiens): 100 µM"
CN1C[C@H](CNC(=O)OCc2ccccc2)C[C@@H]2c3cccc4c3c(cn4C)C[C@H]21 [Metergoline],,,,20.1,0.07,0.07,7.8,,,12.3,classification at 100 μM IC50 threshold ([2]; PHH 48 h): false positives; classification at 100 μM IC50 threshold ([4]; hLiMT 14 days): false positives
CC1(C)S[C@@H]2[C@H](NC(=O)COc3ccccc3)C(=O)N2[C@H]1C(=O)O [Penicillin V],,,,> 100,14.3,14.3,> 100,,,100,
O=C1CN(/N=C/c2ccc(-c3ccc([N+](=O)[O-])cc3)o2)C(O)=N1 [Dantrolene],1: Severe clinical DILI (N = 23),1. Severe Clinical DILI,1. Severe Clinical DILI,> 100,3.95,3.95,> 100,8,most DILI concern,,
C[C@]12CC[C@@H]3c4ccc(O)cc4CC[C@H]3[C@@H]1CC[C@@H]2O [beta-Estradiol],,,,,0.0006,0.0006,,,,,"IC50 [2, 15]: > 100 µM; IC50 ([6]; hLiMT, 5/6 days, ATP content): 42 µM; IC50 [4, 16]: 13.5 µM"
Cc1cn([C@H]2C=C[C@@H](CO)O2)c(=O)[nH]c1=O [Stavudine],1: Severe clinical DILI (N = 23),1. Severe Clinical DILI,1. Severe Clinical DILI,> 500,3.46,3.46,> 500,8,most DILI concern,,
"CCc1ccc(CCOc2ccc(CC3SC(=O)NC3=O)cc2)nc1 (stereo not drawn) [Pioglizatone, Pioglitazone]",3: Low clinical DILI concern (N = 23),3. Low Clinical DILI Concern,3. Low Clinical DILI Concern,> 125,2.95,2.95,> 15.6,3,less DILI concern,,
COc1ccc2cc([C@H](C)C(=O)O)ccc2c1 [Naproxen],,,,,,,,,,100,
NC(=O)OCC(COC(N)=O)c1ccccc1 [Felbamate],1: Severe clinical DILI (N = 23),1. Severe Clinical DILI,1. Severe Clinical DILI,> 100,399,399,> 100,7,most DILI concern,,
O=C1[C@H](CC[C@H](O)c2ccc(F)cc2)[C@@H](c2ccc(O)cc2)N1c1ccc(F)cc1 [Ezetimibe],,,,,,,,,,45.6,"DILI severity category ([1]; table S-4, ref Garside et al. 2014): 3; IC50 [4, 14]: 45.5 µM"
